Measurements reported in patent publication US6737383B1, “Herbicidal oxadiazolidines” (priority 1999, dated 2004).

What was measured:
bamyardgrass = experiment: Test B flood test barnyardgrass; assay type: in vivo, Echinochloa crus-galli
How it was run: (§1)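 Flood test on plants grown to the 2-leaf stage; treated plants kept in greenhouse twelve to sixteen days, then visually rated against controls on a 0 (no effect) to 10 (complete control) scale.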

velvetleaf = experiment: Test B pre/postemergence velvetleaf; assay type: in vivo, Abutilon theophrasti
How it was run: (§2)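 Test chemicals in a non-phytotoxic solvent mixture with surfactant were sprayed preemergence onto planted seeds and postemergence onto plants 2 to 18 cm tall (1- to 4-leaf stage). After twelve to sixteen days in a greenhouse, injury was visually rated against untreated controls from 0 (no effect) to 10 (complete control).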

rape = experiment: Test B pre/postemergence rape; assay type: in vivo, Brassica napus
How it was run: as §2

wild oat = experiment: Test B pre/postemergence wild oat; assay type: in vivo, Avena fatua
How it was run: as §2

corn = experiment: Test B pre/postemergence corn; assay type: in vivo, Zea mays
How it was run: as §2

purple nutsedge = experiment: Test B pre/postemergence purple nutsedge; assay type: in vivo, Cyperus rotundus
How it was run: as §2

soybean = experiment: Test B pre/postemergence soybean; assay type: in vivo, Glycine max
How it was run: as §2

crabgrass = experiment: Test B pre/postemergence crabgrass; assay type: in vivo, Digitaria sanguinalis
How it was run: as §2

morningglory = experiment: Test B pre/postemergence morningglory; assay type: in vivo, Ipomoea hederacea
How it was run: as §2

pigweed = experiment: Test B pre/postemergence pigweed; assay type: in vivo, Amaranthus retroflexus
How it was run: as §2

sugar beet = experiment: Test B pre/postemergence sugar beet; assay type: in vivo, Beta vulgaris
How it was run: as §2

wheat = experiment: Test B pre/postemergence wheat; assay type: in vivo, Triticum aestivum
How it was run: as §2

cocklebur = experiment: Test B pre/postemergence cocklebur; assay type: in vivo, Xanthium strumarium
How it was run: as §2

rice = experiment: Test B flood test rice; assay type: in vivo, Oryza sativa
How it was run: as §1

duck salad = experiment: Test B flood test duck salad; assay type: in vivo, Heteranthera limosa
How it was run: as §1

giant foxtail = experiment: Test B pre/postemergence giant foxtail; assay type: in vivo, Setaria faberii
How it was run: as §2

[1] = Postemergence, Rate 62 g/ha, scale 0 to 10, 0 is no effect, 10 is complete control
[2] = Rate 125 g/ha, Postemergence section (flood test species), scale 0 to 10, 0 no effect, 10 complete control
[3] = Rate 500 g/ha, Postemergence section of Table B, 0 to 10 scale (0 no effect, 10 complete control)
[4] = flood test, listed under Postemergence, Rate 250 g/ha, scale 0 to 10, 0 no effect, 10 complete control
[5] = Postemergence, Rate 250 g/ha, scale 0 to 10, 0 no effect, 10 complete control
[6] = Preemergence, Rate 31 g/ha, visual rating, scale 0 to 10 (0 no effect, 10 complete control)
[7] = Preemergence, Rate 62 g/ha, scale 0 to 10, 0 is no effect, 10 is complete control
[8] = Preemergence, Rate 125 g/ha, scale 0 to 10 (0 no effect, 10 complete control)
[9] = Preemergence, Rate 250 g/ha, scale of 0 to 10 where 0 is no effect and 10 is complete control
[10] = Rate 125 g/ha, Postemergence, scale 0 to 10, 0 no effect, 10 complete control
[11] = Rate 31 g/ha, Postemergence, scale 0 to 10

**Q.** What does the source list for Cc1cccc(C)c1-n1c(=O)on(C(=O)N(c2ccc(F)cc2F)C(C)C)c1=O [Compound 28]?
**A.** Barnyardgrass plant response rating (bamyardgrass; [1]): 5; Barnyardgrass plant response rating (bamyardgrass; [2]): 8; Barnyardgrass plant response rating (bamyardgrass; [3]): 10; Barnyardgrass plant response rating (bamyardgrass; [4]): 9; Velvetleaf plant response rating (velvetleaf; [1]): 0; Velvetleaf plant response rating (velvetleaf; [5]): 0; Velvetleaf plant response rating (velvetleaf; [6]): 0; Plant response rating, Velvetleaf (velvetleaf; [7]): 0; Plant response rating, Velvetleaf (velvetleaf; [8]): 0; Plant response rating, Velvetleaf (velvetleaf; [9]): 0; Velvetleaf plant response rating (velvetleaf; [10]): 0; Rape plant response rating (rape; [1]): 0; Rape plant response rating (rape; [5]): 0; Rape plant response rating (rape; [6]): 0; Plant response rating, Rape (rape; [7]): 0; Plant response rating, Rape (rape; [8]): 0; Plant response rating, Rape (rape; [9]): 0; Rape plant response rating (rape; [11]): 0; Rape plant response rating (rape; [10]): 0; Wild oats plant response rating (wild oat; [1]): 0; Wild oats plant response rating (wild oat; [5]): 0; Wild oats plant response rating (wild oat; [6]): 0; Plant response rating, Wild oats (wild oat; [8]): 0; Plant response rating, Wild oats (wild oat; [9]): 3; Wild oats plant response rating (wild oat; [10]): 0; Corn plant response rating (corn; [1]): 0; Corn plant response rating (corn; [5]): 0; Corn plant response rating (corn; [6]): 0; Plant response rating, Corn (corn; [7]): 0; Plant response rating, Corn (corn; [8]): 0; Plant response rating, Corn (corn; [9]): 0; Corn plant response rating (corn; [11]): 0; Corn plant response rating (corn; [10]): 0; Nutsedge plant response rating (purple nutsedge; [1]): 0; Nutsedge plant response rating (purple nutsedge; [5]): 0; Nutsedge plant response rating (purple nutsedge; [6]): 0; Plant response rating, Nutsedge (purple nutsedge; [7]): 0; Plant response rating, Nutsedge (purple nutsedge; [8]): 0; Plant response rating, Nutsedge (purple nutsedge; [9]): 0; Nutsedge plant response rating (purple nutsedge; [11]): 0; Nutsedge plant response rating (purple nutsedge; [10]): 0; Soybean plant response rating (soybean; [1]): 3; Soybean plant response rating (soybean; [5]): 3; Soybean plant response rating (soybean; [6]): 0; Plant response rating, Soybean (soybean; [7]): 0; Plant response rating, Soybean (soybean; [8]): 0; Plant response rating, Soybean (soybean; [9]): 0; Soybean plant response rating (soybean; [10]): 3; Crabgrass plant response rating (crabgrass; [1]): 3; Crabgrass plant response rating (crabgrass; [5]): 9; Crabgrass plant response rating (crabgrass; [6]): 2; Plant response rating, Crabgrass (crabgrass; [7]): 3; Plant response rating, Crabgrass (crabgrass; [8]): 7; Plant response rating, Crabgrass (crabgrass; [9]): 9; Crabgrass plant response rating (crabgrass; [11]): 1; Crabgrass plant response rating (crabgrass; [10]): 6; Morningglory plant response rating (morningglory; [1]): 2; Morningglory plant response rating (morningglory; [5]): 2; Morningglory plant response rating (morningglory; [6]): 0; Plant response rating, Morningglory (morningglory; [7]): 0; Plant response rating, Morningglory (morningglory; [8]): 0; Plant response rating, Morningglory (morningglory; [9]): 0; Morningglory plant response rating (morningglory; [11]): 0; Morningglory plant response rating (morningglory; [10]): 2; Redroot pigweed plant response rating (pigweed; [1]): 0; Redroot pigweed plant response rating (pigweed; [5]): 2; Redroot pigweed plant response rating (pigweed; [6]): 0; Plant response rating, Redroot pigweed (pigweed; [7]): 0; Plant response rating, Redroot pigweed (pigweed; [8]): 0; Plant response rating, Redroot pigweed (pigweed; [9]): 1; Redroot pigweed plant response rating (pigweed; [11]): 0; Redroot pigweed plant response rating (pigweed; [10]): 1; Sugarbeets plant response rating (sugar beet; [1]): 1; Sugarbeets plant response rating (sugar beet; [5]): 1; Sugarbeets plant response rating (sugar beet; [6]): 0; Plant response rating, Sugarbeets (sugar beet; [7]): 0; Plant response rating, Sugarbeets (sugar beet; [8]): 0; Plant response rating, Sugarbeets (sugar beet; [9]): 0; Sugarbeets plant response rating (sugar beet; [10]): 1; Wheat plant response rating (wheat; [1]): 0; Wheat plant response rating (wheat; [5]): 0; Wheat plant response rating (wheat; [6]): 0; Plant response rating, Wheat (wheat; [7]): 0; Plant response rating, Wheat (wheat; [8]): 0; Plant response rating, Wheat (wheat; [9]): 0; Wheat plant response rating (wheat; [10]): 0; Cocklebur plant response rating (cocklebur; [1]): 0; Cocklebur plant response rating (cocklebur; [5]): 3; Cocklebur plant response rating (cocklebur; [6]): 0; Plant response rating, Cocklebur (cocklebur; [8]): 0; Plant response rating, Cocklebur (cocklebur; [9]): 0; Cocklebur plant response rating (cocklebur; [11]): 0; Cocklebur plant response rating (cocklebur; [10]): 0; Rice plant response rating (rice; [1]): 0; Rice plant response rating (rice; [2]): 0; Rice plant response rating (rice; [3]): 3; Rice plant response rating (rice; [4]): 2; Ducksalad plant response rating (duck salad; [1]): 0; Ducksalad plant response rating (duck salad; [2]): 0; Ducksalad plant response rating (duck salad; [3]): 4; Ducksalad plant response rating (duck salad; [4]): 0; Giant foxtail plant response rating (giant foxtail; [1]): 1; Giant foxtail plant response rating (giant foxtail; [5]): 4; Giant foxtail plant response rating (giant foxtail; [6]): 0; Plant response rating, Giant foxtail (giant foxtail; [7]): 2; Plant response rating, Giant foxtail (giant foxtail; [8]): 5; Plant response rating, Giant foxtail (giant foxtail; [9]): 7; Giant foxtail plant response rating (giant foxtail; [11]): 1; Giant foxtail plant response rating (giant foxtail; [10]): 2
